ChEMBL document CHEMBL5385913, “First-in-Class Dual EZH2-HSP90 Inhibitor Eliciting Striking Antiglioblastoma Activity In Vitro and In Vivo” (J Med Chem, 2024)
The source made the active and inactive calls. The calls are words filed in the database; no cut-off is given here.

Legend:
[1] = tested on: GBM; test: Upregulation of HSPA8 gene expression in TMZ-resistant patient-derived human GBM cells by KEGG analysis; type: functional, cell-based
[2] = tested on: GBM; test: Upregulation of HSP90AA1 gene expression in TMZ-resistant patient-derived human GBM cells by KEGG analysis; type: functional, cell-based
[3] = tested on: GBM; test: Upregulation of HSPA4 gene expression in TMZ-resistant patient-derived human GBM cells by KEGG analysis; type: functional, cell-based
[4] = tested on: GBM; test: Upregulation of HSPH gene expression in TMZ-resistant patient-derived human GBM cells by KEGG analysis; type: functional, cell-based
[5] = tested on: GBM; test: Upregulation of ACTB gene expression in TMZ-resistant patient-derived human GBM cells by KEGG analysis; type: functional, cell-based
[6] = tested on: GBM; test: Upregulation of ZYX gene expression in TMZ-resistant patient-derived human GBM cells by KEGG analysis; type: functional, cell-based
[7] = tested on: GBM; test: Downregulation of RPL26 gene expression in TMZ-resistant patient-derived human GBM cells by KEGG analysis; type: functional, cell-based
[8] = tested on: GBM; test: Downregulation of RPS10 gene expression in TMZ-resistant patient-derived human GBM cells by KEGG analysis; type: functional, cell-based
[9] = tested on: GBM; test: Downregulation of YWHAG gene expression in TMZ-resistant patient-derived human GBM cells by KEGG analysis; type: functional, cell-based
[10] = tested on: GBM; test: Downregulation of PCBP1 gene expression in TMZ-resistant patient-derived human GBM cells by KEGG analysis; type: functional, cell-based
[11] = tested on: GBM; test: Downregulation of SRSF7 gene expression in TMZ-resistant patient-derived human GBM cells by KEGG analysis; type: functional, cell-based
[12] = tested on: GBM; test: Inhibition of cell proliferation in TMZ-resistant patient-derived human GBM cells at 2 uM incubated for 48 hrs; type: functional, cell-based
[13] = tested on: GBM; test: Suppression of cell division in TMZ-resistant patient-derived human GBM cells by GSEA analysis; type: functional, cell-based
[14] = tested on: GBM; test: Upregulation of apoptosis-related gene expression in TMZ-resistant patient-derived human GBM cells; type: functional, cell-based
[15] = tested on: GBM; test: Upregulation of necrosis-related gene expression in TMZ-resistant patient-derived human GBM cells; type: functional, cell-based
[16] = tested on: GBM; test: Downregulation of M phase-related gene expression in TMZ-resistant patient-derived human GBM cells; type: functional, cell-based
[17] = tested on: GBM; test: Downregulation of kinetochore-related gene expression in TMZ-resistant patient-derived human GBM cells; type: functional, cell-based
[18] = tested on: GBM; test: Downregulation of spindle-related gene expression in TMZ-resistant patient-derived human GBM cells; type: functional, cell-based
[19] = tested on: GBM; test: Downregulation of CDK1 level in TMZ-resistant patient-derived human GBM cells upto 5 uM incubated for 48 to 72 hrs by Western blot analysis; type: functional, cell-based; settings: time 48-72 hrs
[20] = tested on: GBM; test: Downregulation of CENPF level in TMZ-resistant patient-derived human GBM cells upto 5 uM incubated for 48 to 72 hrs by Western blot analysis; type: functional, cell-based; settings: time 48-72 hrs
[21] = tested on: GBM; test: Downregulation of CENPE level in TMZ-resistant patient-derived human GBM cells upto 5 uM incubated for 48 to 72 hrs by Western blot analysis; type: functional, cell-based; settings: time 48-72 hrs
[22] = tested on: GBM; test: Downregulation of CENPA level in TMZ-resistant patient-derived human GBM cells upto 5 uM incubated for 48 to 72 hrs by Western blot analysis; type: functional, cell-based; settings: time 48-72 hrs
[23] = Downregulation of CENPF level in TMZ-resistant patient-derived human GBM cells assessed as fold change at 2 uM by GlioVis analysis (reference value: 6.6); type: functional
[24] = Downregulation of CENPP level in TMZ-resistant patient-derived human GBM cells assessed as fold change at 2 uM by GlioVis analysis (reference value: 2.18); type: functional
[25] = Downregulation of CENPM level in TMZ-resistant patient-derived human GBM cells assessed as fold change at 2 uM by GlioVis analysis (reference value: 2.23); type: functional
[26] = Downregulation of HJURP level in TMZ-resistant patient-derived human GBM cells assessed as fold change at 2 uM by GlioVis analysis (reference value: 4.74); type: functional
[27] = Downregulation of HELLS level in TMZ-resistant patient-derived human GBM cells assessed as fold change at 2 uM by GlioVis analysis (reference value: 4.19); type: functional
[28] = Downregulation of CENPO level in TMZ-resistant patient-derived human GBM cells assessed as fold change at 2 uM by GlioVis analysis (reference value: 3.12); type: functional
[29] = Downregulation of CENPU level in TMZ-resistant patient-derived human GBM cells assessed as fold change at 2 uM by GlioVis analysis (reference value: 3.88); type: functional
[30] = Downregulation of CENPK level in TMZ-resistant patient-derived human GBM cells assessed as fold change at 2 uM by GlioVis analysis (reference value: 3.71); type: functional
[31] = Downregulation of CENPI level in TMZ-resistant patient-derived human GBM cells assessed as fold change at 2 uM by GlioVis analysis (reference value: 3.46); type: functional
[32] = Effect on processing DNA double-strand break in TMZ-resistant patient-derived human GBM cells assessed as fold decrease in RBBP8 gene expression at 2 uM (reference value: 4.92); type: functional
[33] = tested on: GBM; test: Effect on homologous recombination in TMZ-resistant patient-derived human GBM cells assessed as fold decrease in TOP2A gene expression at 2 uM (reference value: 6.78); type: functional
[34] = tested on: GBM; test: Effect on homologous recombination in TMZ-resistant patient-derived human GBM cells assessed as fold decrease in HDAC10 gene expression at 2 uM (reference value: 0.53); type: functional
[35] = tested on: GBM; test: Effect on homologous recombination in TMZ-resistant patient-derived human GBM cells assessed as fold decrease in RAD54B gene expression at 2 uM (reference value: 1.74); type: functional
[36] = tested on: GBM; test: Effect on homologous recombination in TMZ-resistant patient-derived human GBM cells assessed as fold decrease in FANCM gene expression at 2 uM (reference value: 2.59); type: functional
[37] = tested on: GBM; test: Induction of ROS production in patient-derived human GBM cells measured after 48 hrs by DHR staining based flow cytometry; type: functional, cell-based
[38] = tested on: GBM; test: Induction of ROS production in TMZ-resistant patient-derived human GBM cells measured after 48 hrs by DHR staining based flow cytometry; type: functional, cell-based
[39] = tested on: GBM; test: Induction of ROS production in patient-derived human GBM cells assessed as decrease in SOD1 level upto 10 uM measured after 48 hrs by Western blot analysis; type: functional, cell-based
[40] = tested on: GBM; test: Induction of ROS production in patient-derived human GBM cells assessed as decrease in GPX1 level upto 10 uM measured after 48 hrs by Western blot analysis; type: functional, cell-based
[41] = molecular target: Histone-lysine N-methyltransferase EZH2 (Homo sapiens) (UniProt Q15910); test: Inhibition of EZH2 in TMZ-resistant patient-derived human GBM cells upto 10 uM measured after 48 hrs by Western blot analysis; type: cell-based
[42] = molecular target: Histone-lysine N-methyltransferase EZH2 (Homo sapiens) (UniProt Q15910); test: Inhibition of EZH2-mediated H3K27 trimethylation in TMZ-resistant patient-derived human GBM cells upto 10 uM measured after 48 hrs by Western blot analysis; type: cell-based
[43] = tested on: GBM; test: Induction of mitochondrial ROS production in TMZ-resistant patient-derived human GBM cells by MitoSOX staining based analysis; type: functional, cell-based

Sequence of Histone-lysine N-methyltransferase EZH2 (Homo sapiens) (Q15910 whole entry, looked up): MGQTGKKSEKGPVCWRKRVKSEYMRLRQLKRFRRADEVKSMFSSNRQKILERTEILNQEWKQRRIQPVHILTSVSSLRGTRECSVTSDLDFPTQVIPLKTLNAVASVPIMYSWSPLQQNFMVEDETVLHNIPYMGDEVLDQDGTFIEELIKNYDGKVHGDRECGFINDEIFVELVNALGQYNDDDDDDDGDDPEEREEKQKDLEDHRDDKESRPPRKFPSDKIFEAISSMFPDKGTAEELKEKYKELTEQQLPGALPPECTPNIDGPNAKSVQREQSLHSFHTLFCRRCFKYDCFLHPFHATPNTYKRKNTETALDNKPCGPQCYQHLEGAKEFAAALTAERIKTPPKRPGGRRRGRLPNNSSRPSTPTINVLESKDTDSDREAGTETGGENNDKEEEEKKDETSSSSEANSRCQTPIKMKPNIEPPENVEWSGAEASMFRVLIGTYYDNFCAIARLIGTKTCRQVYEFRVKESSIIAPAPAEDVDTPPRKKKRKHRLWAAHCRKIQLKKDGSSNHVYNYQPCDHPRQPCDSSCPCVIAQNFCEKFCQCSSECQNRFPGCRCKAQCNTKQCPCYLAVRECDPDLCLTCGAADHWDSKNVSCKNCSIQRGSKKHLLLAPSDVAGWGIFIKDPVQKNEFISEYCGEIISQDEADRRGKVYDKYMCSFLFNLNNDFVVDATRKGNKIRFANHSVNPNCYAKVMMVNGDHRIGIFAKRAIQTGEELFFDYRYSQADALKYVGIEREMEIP

Compound: CCN(c1cc(-c2cccc(N(C)C(=O)c3cc(C(C)C)c(O)cc3O)c2)cc(C(=O)NCc2c(C)cc(C)[nH]c2=O)c1C)C1CCOCC1
- Activity [1]: Active
- Activity [2]: Active
- Activity [3]: Active
- Activity [4]: Active
- Activity [5]: Active
- Activity [6]: Active
- Activity [7]: Active
- Activity [8]: Active
- Activity [9]: Active
- Activity [10]: Active
- Activity [11]: Active
- inhibition [12]: Active
- Activity [13]: Active
- Activity [14]: Active
- Activity [15]: Active
- Activity [16]: Active
- Activity [17]: Active
- Activity [18]: Active
- Activity [19]: Active
- Activity [20]: Active
- Activity [21]: Active
- Activity [22]: Active
- fold change (FC) [23]: 3.46
- fold change (FC) [24]: 1.27
- fold change (FC) [25]: 0.48
- fold change (FC) [26]: 1.38
- fold change (FC) [27]: 2.37
- fold change (FC) [28]: 1.84
- fold change (FC) [29]: 1.46
- fold change (FC) [30]: 1.33
- fold change (FC) [31]: 1.14
- fold change (FC) [32]: 3.95
- fold change (FC) [33]: 2.68
- fold change (FC) [34]: 0.17
- fold change (FC) [35]: 0.83
- fold change (FC) [36]: 1.77
- Activity [37]: Active
- Activity [38]: Active
- Activity [39]: Active
- Activity [40]: Active
- inhibition [41]: Active
- inhibition [42]: Active
- Activity [43]: Active
